Experimental data as given in patent publication US4490370A, “Naphthylglycyl cephalosporin derivatives” (priority 1983, dated 1984).
Values after ≈ are worked out from the molar mass of the structure shown. Read-outs that look alike come from different tables or passages of the source.

Assays:
Assay type in all cases: cell-based
Klebsiella = experiment: Agar dilution MIC, Klebsiella; details: Klebsiella; Table I, strain X26; read-out: MIC
Source text: (§1) A typical and preferred compound provided by this invention is 7-(2-naphthylglycylamido)-3-methyl-3-cephem-4-carboxylic acid, the compound of Example 3. The antibacterial activity of this compound and several others of the invention has been determined in standard in vitro agar dilution assays against a variety of gram positive microorganisms. The following Tables present typical minimum inhibitory concentrations (MIC's) in μg/ml for the compounds when evaluated against the indicated microorganisms. MIC's for several known compounds are also presented for comparison.

Staph. aureus = experiment: Agar dilution MIC, Staph. aureus; details: Staphylococcus aureus
Source text: (§2) The following Tables present typical minimum inhibitory concentrations (MIC's) in μg/ml for the compounds when evaluated against the indicated microorganisms.

Strep. A = experiment: Agar dilution MIC, Strep. A; details: Table I, strain C203; read-out: MIC
Source text: as §1

Staph. epi = experiment: Agar dilution MIC, Staph. epi; details: read-out: MIC
Source text: as §2

Strep. PN = experiment: Agar dilution MIC, Strep. PN; details: Table I, strain PARK; read-out: MIC
Source text: as §2

H. influ. = experiment: Agar dilution MIC, H. influenza; details: read-out: MIC
Source text: as §2

[1] = Table I, strain V41, read-out: MIC
[2] = Table I, strain X1.1, read-out: MIC
[3] = Table I, strain X400, read-out: MIC
[4] = Table II, strain S224, read-out: MIC
[5] = Table II, strain S225, read-out: MIC
[6] = Table II, strain S226, read-out: MIC
[7] = Table II, strain S227, read-out: MIC
[8] = Table II, strain S228, read-out: MIC
[9] = Table II, strain S229, read-out: MIC
[10] = Table II, strain S230, read-out: MIC
[11] = Table II, strain S231, read-out: MIC
[12] = Table II, strain S234, read-out: MIC
[13] = Table II, strain S237, read-out: MIC
[14] = Table II, strain S238, read-out: MIC
[15] = Table II, strain S239, read-out: MIC
[16] = Table II expanded spectrum, strain EPI1

SMILES	MIC (Klebsiella) [µg/mL]	MIC (Staph. aureus; [1]) [µg/mL]	MIC (Staph. aureus; [2]) [µg/mL]	MIC (Staph. aureus; [3]) [µg/mL]	MIC (Staph. aureus; [4]) [µg/mL]	MIC (Staph. aureus; [5]) [µg/mL]	MIC (Staph. aureus; [6]) [µg/mL]	MIC (Staph. aureus; [7]) [µg/mL]	MIC (Staph. aureus; [8]) [µg/mL]	MIC (Staph. aureus; [9]) [µg/mL]	MIC (Staph. aureus; [10]) [µg/mL]	MIC (Staph. aureus; [11]) [µg/mL]	MIC (Staph. aureus; [12]) [µg/mL]	MIC (Staph. aureus; [13]) [µg/mL]	MIC (Staph. aureus; [14]) [µg/mL]	MIC (Staph. aureus; [15]) [µg/mL]	MIC (Strep. A) [µg/mL]	MIC (Staph. epi; Table I, strain 222) [µg/mL]	MIC (Staph. epi; Table I, strain EPI1) [µg/mL]	MIC (Staph. epi; [16]) [µg/mL]	also measured
COc1ccc2cc([C@@H](N)C(=O)NC3C(=O)N4C(C(=O)O)=C(C)CSC34)ccc2c1 (stereo partly drawn) [Example 10, D-7-(6-Methoxy-2-naphthyl)glycylamido-3-methyl-3-cephem-4-carboxylic acid]	4 (≈ 9.36 µM)	16 (≈ 37.4 µM)	0.25 (≈ 0.585 µM)	64 (≈ 150 µM)	0.5 (≈ 1.17 µM)	0.5 (≈ 1.17 µM)	1 (≈ 2.34 µM)	1 (≈ 2.34 µM)	0.5 (≈ 1.17 µM)	1 (≈ 2.34 µM)	0.5 (≈ 1.17 µM)	0.25 (≈ 0.585 µM)	1 (≈ 2.34 µM)	1 (≈ 2.34 µM)	1 (≈ 2.34 µM)	1 (≈ 2.34 µM)	0.125 (≈ 0.292 µM)	1 (≈ 2.34 µM)	4 (≈ 9.36 µM)	4 (≈ 9.36 µM)	MIC (Staph. aureus; Table I, strain S13E): 16 µg/mL (≈ 37.4 µM); MIC (Staph. epi; Table II, strain 219): 5 µg/mL (≈ 11.7 µM); MIC (Staph. epi; Table II, strain 269): 2 µg/mL (≈ 4.68 µM); MIC (Staph. epi; Table II, strain 270): 4 µg/mL (≈ 9.36 µM); MIC (Staph. epi; Table II, strain 285): 2 µg/mL (≈ 4.68 µM); MIC (Staph. epi; Table II, strain 286): 0.5 µg/mL (≈ 1.17 µM); MIC (Strep. PN): 0.125 µg/mL (≈ 0.292 µM); MIC (H. influ.; Table I, strain BRUN): 16 µg/mL (≈ 37.4 µM); MIC (H. influ.; Table II, strain 1930): 8 µg/mL (≈ 18.7 µM); MIC (H. influ.; Table II, strain C.L.): 8 µg/mL (≈ 18.7 µM); MIC (H. influ.; Table II, strain HESS): 8 µg/mL (≈ 18.7 µM); MIC (H. influ.; Table II, strain M366): 16 µg/mL (≈ 37.4 µM); MIC (H. influ.; Table II, strain R465): 16 µg/mL (≈ 37.4 µM); MIC (H. influ.; Table II, strain STEL): 16 µg/mL (≈ 37.4 µM)
CC1=C(C(=O)O)N2C(=O)C(NC(=O)[C@H](N)c3ccc4cc(O)ccc4c3)C2SC1 (stereo partly drawn) [Example 11, D-7-(6-hydroxy-2-naphthylglycyl-amido)-3-methyl-3-cephem-4-carboxylic acid]	4 (≈ 9.67 µM)	8 (≈ 19.3 µM)	0.5 (≈ 1.21 µM)	32 (≈ 77.4 µM)	0.5 (≈ 1.21 µM)	0.5 (≈ 1.21 µM)	1 (≈ 2.42 µM)	0.5 (≈ 1.21 µM)	0.5 (≈ 1.21 µM)	1 (≈ 2.42 µM)	0.5 (≈ 1.21 µM)	0.5 (≈ 1.21 µM)	1 (≈ 2.42 µM)	1 (≈ 2.42 µM)	1 (≈ 2.42 µM)	1 (≈ 2.42 µM)	0.125 (≈ 0.302 µM)	1 (≈ 2.42 µM)	4 (≈ 9.67 µM)	4 (≈ 9.67 µM)	MIC (Staph. epi; Table II, strain 219): 0.5 µg/mL (≈ 1.21 µM); MIC (Staph. epi; Table II, strain 269): 2 µg/mL (≈ 4.84 µM); MIC (Staph. epi; Table II, strain 270): 4 µg/mL (≈ 9.67 µM); MIC (Staph. epi; Table II, strain 285): 2 µg/mL (≈ 4.84 µM); MIC (Staph. epi; Table II, strain 286): 1 µg/mL (≈ 2.42 µM); MIC (Strep. PN): 0.25 µg/mL (≈ 0.605 µM); MIC (H. influ.; Table I, strain BRUN): 8 µg/mL (≈ 19.3 µM); MIC (H. influ.; Table II, strain M366): > 64 µg/mL; MIC (H. influ.; Table II, strain R465): 16 µg/mL (≈ 38.7 µM); MIC (H. influ.; Table II, strain STEL): > 64 µg/mL
